One data set concerns the target T1, mGlyT-1b (Mus musculus, UniProt P28571).
T1 sequence (P28571 1-651 isoform P28571-2): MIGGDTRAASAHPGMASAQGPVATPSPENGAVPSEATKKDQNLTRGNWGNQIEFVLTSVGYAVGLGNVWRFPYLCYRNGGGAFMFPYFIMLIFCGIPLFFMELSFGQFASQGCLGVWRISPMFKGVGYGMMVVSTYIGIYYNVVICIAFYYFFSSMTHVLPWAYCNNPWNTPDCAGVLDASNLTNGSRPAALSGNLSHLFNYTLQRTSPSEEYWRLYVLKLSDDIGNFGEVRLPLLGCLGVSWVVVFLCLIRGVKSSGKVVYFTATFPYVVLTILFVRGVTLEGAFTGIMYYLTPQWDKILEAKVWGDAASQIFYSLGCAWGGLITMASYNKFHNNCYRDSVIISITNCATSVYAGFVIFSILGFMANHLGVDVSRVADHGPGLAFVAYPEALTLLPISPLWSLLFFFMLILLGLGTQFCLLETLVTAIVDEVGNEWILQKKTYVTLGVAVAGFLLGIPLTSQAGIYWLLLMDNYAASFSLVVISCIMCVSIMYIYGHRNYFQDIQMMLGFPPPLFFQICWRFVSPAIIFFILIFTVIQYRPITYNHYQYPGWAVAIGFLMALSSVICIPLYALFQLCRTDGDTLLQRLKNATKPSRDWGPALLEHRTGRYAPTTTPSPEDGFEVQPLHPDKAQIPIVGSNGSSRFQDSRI
Kind of data set: Glycine uptake inhibition assay (mGlyT-1b). Type of data set: cell-based.

One may read the melting point as the temperature of the solid-liquid transition. Broadly, the IC50 is the midpoint of a concentration-inhibition curve.

Molecules are shown by their SMILES. Read-outs that look alike come from different tables or passages of the source.

Take `O=C1NCN(c2ccccc2)C12CCN(C1CCCCC1c1ccccc1)CC2` (racemic) [Example 1, (rac,cis)-1-Phenyl-8-(2-phenyl-cyclohexyl)-1,3,8-triaza-spiro[4.5]decan-4-one]: the melting point fell in the range of 205 to 208 °C.

In the case of `Cc1ccc(C2CCCCC2N2CCC3(CC2)C(=O)NCN3c2ccccc2)cc1` (racemic) [Example 8, (rac,cis)-1-Phenyl-8-(2-p-tolyl-cyclohexyl)-1,3,8-triaza-spiro[4.5]decan-4-one], the melting point was 174 to 176 °C. Still for that read-out and setting: the value for `O=C1NCN(c2ccccc2)C12CCN([C@H]1CCCC[C@H]1c1ccc(F)cc1)CC2` (racemic) [Example 10, (rac,cis)-8-[2-(4-Fluoro-phenyl)-cyclohexyl]-1-phenyl-1,3,8-triaza-spiro[4.5]decan-4-one] was 198 to 200 °C. Still for that read-out and setting: the same measure for `O=C1NCN(c2ccccc2)C12CCN([C@H]1CCCC[C@H]1c1ccc(Cl)cc1)CC2` (racemic) [Example 11, (rac,cis)-8-[2-(4-Chloro-phenyl)-cyclohexyl]-1-phenyl-1,3,8-triaza-spiro[4.5]decan-4-one]: 204 to 206 °C; for `O=C1NCN(c2ccccc2)C12CCN([C@H]1CCCC[C@H]1c1ccc(Cl)c(Cl)c1)CC2` (racemic) [Example 13, (rac,cis)-8-[2-(3,4-Dichloro-phenyl)-cyclohexyl]-1-phenyl-1,3,8-triaza-spiro[4.5]decan-4-one]: 198 to 200 °C.

On to `O=C1NCN(c2ccc(F)cc2)C12CCN([C@H]1CCCC[C@H]1c1ccc(Cl)cc1)CC2` (racemic) [Example 17, (rac,cis)-8-[2-(4-Chloro-phenyl)-cyclohexyl]-1-(4-fluoro-phenyl)-1,3,8-triaza-spiro[4.5]decan-4-one], for which, on mGlyT-1b, the IC50 was found to be 74 nM.

With `Cc1ccc(C2CCCCC2N2CCC3(CC2)C(=O)NCN3c2ccc(F)cc2)cc1` (racemic) [Example 22, (rac,cis)-1-(4-Fluoro-phenyl)-8-(2-p-tolyl-cyclohexyl)-1,3,8-triaza-spiro[4.5]decan-4-one], the IC50 against mGlyT-1b came to 29 nM.

Take `O=C1NCN(c2ccc(F)cc2)C12CCN(C1CCCCC1c1ccc(F)cc1)CC2` (racemic) [Example 24, (rac,cis)-1-(4-Fluoro-phenyl)-8-[2-(4-fluoro-phenyl)-cyclohexyl]-1,3,8-triaza-spiro[4.5]decan-4-one]: the concentration for half-maximal inhibition (IC50) on mGlyT-1b amounted to 67 nM.

As for `CC(C)CCN1CNC(=O)C12CCN(C1CCCCC1c1ccccc1)CC2` (racemic) [Example 54, (rac,cis)-1-(3-Methyl-butyl)-8-(2-phenyl-cyclohexyl)-1,3,8-triaza-spiro[4.5]decan-4-one], it took 52 nM to reach half-maximal inhibition against mGlyT-1b (IC50).

Regarding `O=C1NCN(c2ccc(Cl)c(Cl)c2)C12CCN(C1CCCCC1c1ccccc1)CC2` (racemic) [Example 59, (rac,cis)-1-(3,4-Dichloro-phenyl)-8-(2-phenyl-cyclohexyl)-1,3,8-triaza-spiro[4.5]decan-4-one], the IC50 against mGlyT-1b worked out at 32 nM. `O=C1NCN(c2ccccc2)C12CCN(C1CCCCC1c1ccccc1)CC2` (racemic) [Example 68, (rac,trans)-1-Phenyl-8-(2-phenyl-cyclohexyl)-1,3,8-triaza-spiro[4.5]decan-4-one] showed a melting point of 254 to 256 °C. As to `O=C1NCN(c2ccccc2)C12CCN(C1CCCCC1(O)c1ccccc1)CC2` (racemic) [Example 74, (rac,cis)-8-(2-Hydroxy-2-phenyl-cyclohexyl)-1-phenyl-1,3,8-triaza-spiro[4.5]decan-4-one], the IC50 on mGlyT-1b turned out to be 44 nM. The molecule `O=C1NCN(c2ccccc2)C12CCN(C1CCCCC1(O)c1ccc(F)cc1)CC2` (racemic) [Example 75, (rac,cis)-8-[2-(4-Fluoro-phenyl)-2-hydroxy-cyclohexyl]-1-phenyl-1,3,8-triaza-spiro[4.5]decan-4-one] displayed an IC50 against mGlyT-1b of 41 nM.

On to `Cc1ccccc1C1(O)CCCCC1N1CCC2(CC1)C(=O)NCN2c1ccccc1` (racemic) [Example 76, (rac,cis)-8-(2-Hydroxy-2-o-tolyl-cyclohexyl)-1-phenyl-1,3,8-triaza-spiro[4.5]decan-4-one], for which the IC50 against mGlyT-1b came to 50 nM.

As to `O=C1NCN(c2ccccc2)C12CCN(C1CCCCC1(O)c1ccncc1)CC2` (racemic) [Example 77, (rac,cis) 8-(2-Hydroxy-2-pyridin-4-yl-cyclohexyl)-1-phenyl-1,3,8-triaza-spiro[4.5]decan-4-one], at mGlyT-1b, the IC50 was 62 nM. Still for that read-out and setting: the value for `O=C1NCN(c2ccccc2)C12CCN(C1CCCCC1(O)c1ccc(Cl)cc1)CC2` (racemic) [Example 78, (rac,cis)-8-[2-(4-Chloro-phenyl)-2-hydroxy-cyclohexyl]-1-phenyl-1,3,8-triaza-spiro[4.5]decan-4-one] was 86 nM.

Consider `O=C1NCN(c2ccc(F)cc2)C12CCN(C1CCCCC1(O)c1ccc(F)cc1)CC2` (racemic) [Example 87, (rac,cis)-1-(4-Fluoro-phenyl)-8-[2-(4-fluoro-phenyl)-2-hydroxy-cyclohexyl]-1,3,8-triaza-spiro[4.5]decan-4-one], for which the IC50 at mGlyT-1b was 24 nM.

With `O=C1NCN(c2ccc(F)cc2)C12CCN(C1CCCCC1(O)c1ccc(Cl)cc1)CC2` (racemic) [Example 88, (rac,cis)-8-[2-(4-Chloro-phenyl)-2-hydroxy-cyclohexyl]-1-(4-fluoro-phenyl)-1,3,8-triaza-spiro[4.5]decan-4-one], on mGlyT-1b, the IC50 came out at 60 nM. The same measure, in the same setting: the value for `O=C1NCN(c2ccc(Cl)cc2)C12CCN(C1CCCCC1(O)c1ccc(F)cc1)CC2` (racemic) [Example 89, (rac,cis)-1-(4-Chloro-phenyl)-8-[2-(4-fluoro-phenyl)-2-hydroxy-cyclohexyl]-1,3,8-triaza-spiro[4.5]decan-4-one] was 15 nM. The same measure, in the same setting: the same measure for `O=C1NCN(c2ccc(Cl)cc2)C12CCN(C1CCCCC1(O)c1ccc(Cl)cc1)CC2` (racemic) [Example 90, (rac,cis)-1-(4-Chloro-phenyl)-8-[2-(4-chloro-phenyl)-2-hydroxy-cyclohexyl]-1,3,8-triaza-spiro[4.5]decan-4-one]: 43 nM. Turning to `Cc1ccc(N2CNC(=O)C23CCN(C2CCCCC2(O)c2ccc(F)cc2)CC3)cc1` (racemic) [Example 91, (rac,cis)-8-[2-(4-Fluoro-phenyl)-2-hydroxy-cyclohexyl]-1-p-tolyl-1,3,8-triaza-spiro[4.5]decan-4-one], the IC50 at mGlyT-1b (Flp-in-CHO cells stably transfected with mGlyT-1b cDNA, [3H]-glycine 60 nM and 25 μM non-radioactive glycine, 20 min preincubation at 22° C., read-out: IC50 at GlyT-1 (inhibition of glycine uptake)) was found to be 39 nM. As to `COc1ccc(N2CNC(=O)C23CCN(C2CCCCC2(O)c2ccc(Cl)cc2)CC3)cc1` (racemic) [Example 92, (rac,cis)-8-[2-(4-Chloro-phenyl)-2-hydroxy-cyclohexyl]-1-(4-methoxy-phenyl)-1,3,8-triaza-spiro[4.5]decan-4-one], the midpoint of inhibition at mGlyT-1b, the IC50, lay at 99 nM. Same read-out and setting: the same measure for `O=C1NCN(c2ccccc2)C12CCN(C1COCCC1(O)c1ccccc1)CC2` (racemic) [Example 99, (rac,cis)-8-(4-Hydroxy-4-phenyl-tetrahydro-pyran-3-yl)-1-phenyl-1,3,8-triaza-spiro[4.5]decan-4-one]: 58 nM. For the molecule `O=C1NCN(c2ccccc2)C12CCN(C1CCOCC1(O)c1ccccc1)CC2` (racemic) [Example 100, (rac,cis)-8-(3-Hydroxy-3-phenyl-tetrahydro-pyran-4-yl)-1-phenyl-1,3,8-triaza-spiro[4.5]decan-4-one], half-maximal inhibition at mGlyT-1b (IC50) was put at 90 nM. The molecule `O=C1NCN(c2ccccc2)C12CCN(C1CCCCC1(O)c1ccccc1)CC2` (racemic) [Example 101, (rac,trans)-8-(2-Hydroxy-2-phenyl-cyclohexyl)-1-phenyl-1,3,8-triaza-spiro[4.5]decan-4-one] showed an IC50 on mGlyT-1b of 56 nM.
